The text below walks through data of paper PMC10702835, “Recognition of centromere‐specific histone Cse4 by the inner kinetochore Okp1‐Ame1 complex” (EMBO Reports, 2023).

The target in one assay is T1, Okp1(EYAA)‐Ame1 (Saccharomyces cerevisiae, UniProt P38313+P53298, E235A/Y238A).
T1 construct: Full‐length mutant Okp1‐Ame1 complex (EYAA or I195Y as indicated) was tested for its association with FITC‐Cse4^END; 6His (C); made in house; host or cells: E. coli
Kind of assay: biochemical. It counts as binding. As to the method:
(§1) Results of a GST pulldown assay are shown. • The minimal Okp1‐Ame1 complex used for crystallography was tested for its association with FITC‐Cse4^END in a fluorescence polarization experiment.
(§2) Fluorescence polarization assays
(§3) FITC‐Cse4^28‐60 peptide was synthesized by the Tufts University Core Facility. 20 nM of FITC‐Cse4^28‐60 peptide was used in all reactions, and Okp1‐Ame1 concentrations were varied to determine the dissociation constant (K D ), in reaction buffer containing 100 mM HEPES, pH 7.5, 200 mM NaCl, 1 mM TCEP (full‐length Okp1‐Ame1 complex) or reaction buffer with 600 mM NaCl (truncated Okp1‐Ame1 complex).

Another assay addresses T2, Okp1‐Ame1(I195Y) (Saccharomyces cerevisiae, UniProt P38313+P53298, I195Y).
T2 construct: Full‐length mutant Okp1‐Ame1 complex (EYAA or I195Y as indicated) was tested for its association with FITC‐Cse4^END; 6His (C); made in house; host or cells: E. coli
The assay can be described thus: biochemical. Format: binding. As to the method: as §1, §2, §3

Where only a bound is given, the exact number is not on record here.

T1 sequence (P38313 whole entry): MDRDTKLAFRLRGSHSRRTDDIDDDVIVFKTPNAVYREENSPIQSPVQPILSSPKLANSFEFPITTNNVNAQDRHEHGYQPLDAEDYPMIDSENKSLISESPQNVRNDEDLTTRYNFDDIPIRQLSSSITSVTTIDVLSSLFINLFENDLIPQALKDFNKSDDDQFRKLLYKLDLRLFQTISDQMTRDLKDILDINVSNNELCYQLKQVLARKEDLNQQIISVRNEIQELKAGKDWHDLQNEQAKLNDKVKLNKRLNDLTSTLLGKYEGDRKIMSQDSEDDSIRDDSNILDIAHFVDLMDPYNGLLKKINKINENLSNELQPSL
T1 sequence (P53298 whole entry E235A/Y238A): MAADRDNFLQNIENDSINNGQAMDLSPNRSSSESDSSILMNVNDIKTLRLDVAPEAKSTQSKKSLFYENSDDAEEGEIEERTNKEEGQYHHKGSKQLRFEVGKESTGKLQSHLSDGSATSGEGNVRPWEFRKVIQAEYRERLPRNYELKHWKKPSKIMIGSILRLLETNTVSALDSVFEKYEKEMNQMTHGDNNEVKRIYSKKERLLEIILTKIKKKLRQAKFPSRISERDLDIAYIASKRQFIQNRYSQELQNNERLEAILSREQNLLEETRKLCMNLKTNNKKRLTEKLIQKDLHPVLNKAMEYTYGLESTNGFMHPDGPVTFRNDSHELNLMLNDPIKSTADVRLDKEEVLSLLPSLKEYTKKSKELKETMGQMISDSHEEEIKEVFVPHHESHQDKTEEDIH
T2 sequence (P38313 whole entry I195Y): as the sequence (P38313 whole entry) above, with I195Y counted along it
T2 sequence (P53298 whole entry): as the sequence (P53298 whole entry E235A/Y238A) above, with A235E, A238Y counted along it

As to `CC[C@H](C)[C@H](NC(=O)[C@H](CO)NC(=O)[C@H](CCC(N)=O)NC(=O)[C@H](CCC(N)=O)NC(=O)[C@H](CC(=O)O)NC(=O)CNC(=O)[C@H](C)N)C(=O)N[C@@H](CC(N)=O)C(=O)N[C@@H](CC(=O)O)C(=O)N[C@@H](CCCNC(=N)N)C(=O)N[C@@H](C)C(=O)N[C@@H](CC(C)C)C(=O)N[C@@H](CO)C(=O)N[C@@H](CC(C)C)C(=O)N[C@@H](CC(C)C)C(=O)N[C@@H](CCC(N)=O)C(=O)N[C@@H](CCCNC(=N)N)C(=O)N[C@H](C(=O)N[C@@H](CCCNC(=N)N)C(=O)N[C@@H](C)C(=O)N[C@H](C(=O)N[C@@H](CCCCN)C(=O)N[C@@H](CC(N)=O)C(=O)N[C@@H](CC(C)C)C(=O)N[C@@H](Cc1ccccc1)C(=O)N1CCC[C@H]1C(=O)N[C@@H](CCCNC(=N)N)C(=O)N[C@@H](CCCNC(=N)N)C(=O)N[C@@H](CCC(=O)O)C(=O)N[C@@H](CCC(=O)O)C(=O)N[C@@H](CCCNC(=N)N)C(=O)N[C@@H](CCCNC(=N)N)C(=O)N[C@@H](CCCNC(=N)N)C(=O)O)[C@@H](C)O)[C@@H](C)O` [Cse4^END], the Kd on Okp1(EYAA)‐Ame1 and at Okp1‐Ame1(I195Y) was > 3 µM throughout.
